Laboratory results taken from ChEMBL document CHEMBL3112471, “Synthesis and evaluation of anti-tubercular activity of 6-(4-substitutedpiperazin-1-yl) phenanthridine analogues” (Eur J Med Chem, 2014).
Converted amounts (≈) assume the structure as drawn.

Legend:
[1] = test system: Mycobacterium tuberculosis; assay: Antitubercular activity against Mycobacterium tuberculosis H37Rv after 5 days by microplate Alamar Blue assay; assay type: functional; settings: 120 h
[2] = Selectivity index, ratio of IC50 for mouse RAW264.7 cells to MIC for Mycobacterium tuberculosis H37Rv; assay type: toxicity; settings: read-out: Selectivity Index
RAW264.7 = assay: Cytotoxicity against mouse RAW264.7 cells after 72 hrs by MTT assay; assay type: cell-based; settings: RAW264.7, 72 h
[3] = Cytotoxicity against mouse RAW264.7 cells at 50 uM after 72 hrs by MTT assay; assay type: cell-based; settings: read-out: INH

SMILES	MIC99 [1]	also measured
c1ccc(CCN2CCN(c3nc4ccccc4c4ccccc34)CC2)cc1	6.25 µg/mL (≈ 17 µM)	–
c1ccc(C(c2ccccc2)N2CCN(c3nc4ccccc4c4ccccc34)CC2)cc1	3.12 µg/mL (≈ 7.27 µM)	–
c1cnc(N2CCN(c3nc4ccccc4c4ccccc34)CC2)nc1	1.56 µg/mL (≈ 4.57 µM)	selectivity ratio [2]: > 25; IC50 (RAW264.7): > 40 µg/mL; cytotoxicity at 72 h, 50 µM [3]: 18.2%
c1ccc(N2CCN(c3nc4ccccc4c4ccccc34)CC2)nc1	1.56 µg/mL (≈ 4.58 µM)	selectivity ratio [2]: > 25; IC50 (RAW264.7): > 40 µg/mL; cytotoxicity at 72 h, 50 µM [3]: 16.4%
CCN1CCN(c2nc3ccccc3c3ccccc23)CC1	6.25 µg/mL (≈ 21.4 µM)	–
Oc1cccc(N2CCN(c3nc4ccccc4c4ccccc34)CC2)c1	3.12 µg/mL (≈ 8.79 µM)	–
O=C(O)c1cn(C2CC2)c2cc(N3CCN(C(=O)CN4CCN(c5nc6ccccc6c6ccccc56)CC4)CC3)c(F)cc2c1=O	12.5 µg/mL (≈ 19.7 µM)	–
C=Cc1ccc(CN2CCN(c3nc4ccccc4c4ccccc34)CC2)cc1	25 µg/mL (≈ 65.9 µM)	–
C(=C\c1ccccc1)/CN1CCN(c2nc3ccccc3c3ccccc23)CC1	25 µg/mL (≈ 65.9 µM)	–
c1ccc2c(c1)nc(N1CCNCC1)c1ccccc12	25 µg/mL (≈ 94.9 µM)	–
Cc1cccc(N2CCN(c3nc4ccccc4c4ccccc34)CC2)c1	6.25 µg/mL (≈ 17.7 µM)	–
Clc1ccc(N2CCN(c3nc4ccccc4c4ccccc34)CC2)cc1	50 µg/mL (≈ 134 µM)	–
Clc1ccccc1N1CCN(c2nc3ccccc3c3ccccc23)CC1	6.25 µg/mL (≈ 16.7 µM)	–
O=[N+]([O-])c1ccc(N2CCN(c3nc4ccccc4c4ccccc34)CC2)cc1	1.56 µg/mL (≈ 4.06 µM)	selectivity ratio [2]: > 25; IC50 (RAW264.7): > 40 µg/mL; cytotoxicity at 72 h, 50 µM [3]: 21.4%
COc1cccc(N2CCN(c3nc4ccccc4c4ccccc34)CC2)c1	12.5 µg/mL (≈ 33.8 µM)	–
N#Cc1ccccc1N1CCN(c2nc3ccccc3c3ccccc23)CC1	50 µg/mL (≈ 137 µM)	–
COc1ccc2nc(C)cc(SCc3ccc(C(C)(C)C)cc3)c2c1	–	MIC [1]: 0.01 µg/mL (≈ 0.0284 µM)
CN1CCN(c2nc3ccccc3c3ccccc23)CC1	6.25 µg/mL (≈ 22.5 µM)	–
COc1ccc2cc(/C=N/Nc3ccnc4cc(OC)ccc34)ccc2c1	–	MIC [1]: 0.22 µg/mL (≈ 0.616 µM)
NNC(=O)c1ccncc1 [ISONIAZID]	0.36 µg/mL (≈ 2.63 µM)	–
CO[C@H]1/C=C/O[C@@]2(C)Oc3c(C)c(O)c4c(O)c(c(/C=N/N5CCN(C)CC5)c(O)c4c3C2=O)NC(=O)/C(C)=C\C=C\[C@H](C)[C@H](O)[C@@H](C)[C@@H](O)[C@@H](C)[C@H](OC(C)=O)[C@@H]1C [RIFAMPIN]	0.02 µg/mL (≈ 0.0243 µM)	–
